Tests used:
[1] = system: ASPC-1 tumor-bearing mice; test: Biodistribution of radionuclide labeled complexes in ASPC-1 tumor-bearing mice; assay type: in vivo, BALB/c nude mice
Procedure, shortened: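 Radiolabeled compound (~30-50 μCi, ~1.11-1.85 MBq, specific activity 30-250 μCi/nmol) was injected i.v. via tail vein into nude mice carrying 0.05-0.50 g subcutaneous NTSR-1-positive human tumors. At set times, tissues were collected, weighed and γ-counted; % ID and % ID/g were calculated.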

[2] = system: ASPC-1 tumor-bearing mice; test: SPECT/CT imaging of ^177Lu-labeled complexes; assay type: in vivo; settings: over 72 hours
Method: ASPC-1 tumor-bearing mice were IV-injected with about 120 μCi of ^177Lu-labeled complexes, then anesthetized under 2% isoflurane/oxygen gas and placed on the scanner. SPECT/CT images were acquired in three bed positions for 30 min using a MILabs SPECT scanner. Whole-body SPECT images were acquired at 1 h, 4 h, 24 and 72 h after injecting the radiotracers.

[3] = system: HT-29 tumor-bearing mice; test: Biodistribution of radionuclide labeled complexes in HT-29 tumor-bearing mice; assay type: in vivo, BALB/c nude mice
Method: The BALB/c nude mice (Charles River, Beijing) were utilized to establish the xenografted model for biodistribution study. All animal care and experimental procedure were performed by following the animal protocols approved by the ethics committee of China Institute of Radiation Protection.
Briefly, each mouse was inoculated with approximately 4×10^6 ASPC-1 cells (human pancreatic cancer cell line) or HT-29 cells (human colorectal adenocarcinoma cell line) expressing human NTSR-1 by subcutaneous injection at rear flank. After inoculation, the xenografted tumors were allowed to grow for ˜2-4 weeks till the tumor weight reached to about 0.05 to 0.50 g (0.20 g in average).
Biodistribution studies were performed by administrating the radionuclide labeled test compound at a dose of ˜30-50 μCi (100 μL in 0.9% NaCl, ˜1.11-1.85 MBq, with specific activity 30-250 μCi/nmol) to each animal through tail vein injection.
At different time points after the administration, the mice treated with each compound were euthanized. The tissues and organs of the animals in each group were collected, excised, weighed, and analyzed in a PerkinElmer 2480 WIZARD2γ counter, and the percent injected dose (% ID) and % ID/g of each organ or tissue were calculated.

`COc1cccc(OC)c1-c1cc(C(=O)NC2(C(=O)O)C3CC4CC(C3)CC2C4)nn1-c1ccc(NC(=O)CCCN(C)CCCN(C)C(=O)CN2CCN(CC(=O)[O-])CCN(CC(=O)[O-])CCN(CC(=O)[O-])CC2)cc1C(C)C.[177Lu+3]` (stereo not shown) [^177Lu-I-5] was tested, and the “tumor AUC over 72 hours compared to ^177Lu—C2” value [1] was “significantly higher tumor AUC”, the “% ID/g (4 h) Blood” value ([1]; Blood, 4 h) was 15.51 ± 0.77 % ID/g and the “% ID/g (24 h) Blood” value ([1]; Blood, 24 h) was 0.09 ± 0.01 % ID/g. The “% ID/g (72 h) Blood” value ([1]; Blood, 72 h) was 0.02 ± 0 % ID/g, the “% ID/g (4 h) Femur” value ([1]; Femur, 4 h) was 2.21 ± 0.63 % ID/g and the “% ID/g (24 h) Femur” value ([1]; Femur, 24 h) was 0.38 ± 0.23 % ID/g. The “% ID/g (72 h) Femur” value ([1]; Femur, 72 h) was 0.17 ± 0.09 % ID/g, the “% ID/g (4 h) Heart” value ([1]; Heart, 4 h) was 2.82 ± 1.88 % ID/g and the “% ID/g (24 h) Heart” value ([1]; Heart, 24 h) was 2.18 ± 2.71 % ID/g. For the same molecule, the “% ID/g (72 h) Heart” value ([1]; Heart, 72 h) was 0.15 ± 0.13 % ID/g, the “% ID/g (4 h) Intestine” value ([1]; Intestine, 4 h) was 1.81 ± 0.87 % ID/g and the “% ID/g (24 h) Intestine” value ([1]; Intestine, 24 h) was 0.82 ± 0.31 % ID/g. The “% ID/g (72 h) Intestine” value ([1]; Intestine, 72 h) was 0.51 ± 0.04 % ID/g, the “% ID/g (4 h) Kidney” value ([1]; Kidney, 4 h) was 4.57 ± 2.28 % ID/g and the “% ID/g (24 h) Kidney” value ([1]; Kidney, 24 h) was 1.37 ± 0.17 % ID/g. For the same molecule, the “% ID/g (72 h) Kidney” value ([1]; Kidney, 72 h) was 1.29 ± 0.49 % ID/g, the “% ID/g (4 h) Liver” value ([1]; Liver, 4 h) was 3.87 ± 2.36 % ID/g and the “% ID/g (24 h) Liver” value ([1]; Liver, 24 h) was 1.27 ± 0.29 % ID/g. For the same molecule, the “% ID/g (72 h) Liver” value ([1]; Liver, 72 h) was 0.96 ± 0.07 % ID/g, the “% ID/g (4 h) Lung” value ([1]; Lung, 4 h) was 1.841 ± 0.07 % ID/g and the “% ID/g (24 h) Lung” value ([1]; Lung, 24 h) was 0.33 ± 0.06 % ID/g. For the same molecule, the “% ID/g (72 h) Lung” value ([1]; Lung, 72 h) was 0.23 ± 0.07 % ID/g, the “% ID/g (4 h) Muscle” value ([1]; Muscle, 4 h) was 1.29 ± 0.37 % ID/g and the “% ID/g (24 h) Muscle” value ([1]; Muscle, 24 h) was 0.17 ± 0.08 % ID/g. The “% ID/g (72 h) Muscle” value ([1]; Muscle, 72 h) was 0.05 ± 0.01 % ID/g, the “% ID/g (4 h) Pancreas” value ([1]; Pancreas, 4 h) was 1.57 ± 0.5 % ID/g and the “% ID/g (24 h) Pancreas” value ([1]; Pancreas, 24 h) was 0.3 ± 0.24 % ID/g. The “% ID/g (72 h) Pancreas” value ([1]; Pancreas, 72 h) was 0.1 ± 0.04 % ID/g, the “% ID/g (4 h) Spleen” value ([1]; Spleen, 4 h) was 2.39 ± 1.4 % ID/g and the “% ID/g (24 h) Spleen” value ([1]; Spleen, 24 h) was 0.63 ± 0.05 % ID/g. For the same molecule, the “% ID/g (72 h) Spleen” value ([1]; Spleen, 72 h) was 0.34 ± 0.04 % ID/g, the “% ID/g (4 h) Stomach” value ([1]; Stomach, 4 h) was 3.52 ± 0.4 % ID/g and the “% ID/g (24 h) Stomach” value ([1]; Stomach, 24 h) was 0.28 ± 0.2 % ID/g. For the same molecule, the “% ID/g (72 h) Stomach” value ([1]; Stomach, 72 h) was 0.15 ± 0.05 % ID/g, the “% ID/g (4 h) Tumor” value ([1]; Tumor, 4 h) was 27.56 ± 12.51 % ID/g and the “% ID/g (24 h) Tumor” value ([1]; Tumor, 24 h) was 36.67 ± 18.25 % ID/g. For the same molecule, the “% ID/g (72 h) Tumor” value ([1]; Tumor, 72 h) was 12.83 ± 4.23 % ID/g, the “ratio of tumor AUC verse normal organ AUC” value ([1]; compared to ^177Lu—C2) was “significantly improved” and the “clearance from other organs or tissues (SPECT/CT)” value [2] was “rapid clearance”. For the same molecule, the “retention in tumors (SPECT/CT)” value [2] was “sustained retention in tumors”, the “% ID/g (1 h) Blood” value ([3]; Blood, 1 h) was 20.4 ± 1.06 % ID/g and the “% ID/g (4 h) Blood” value ([3]; Blood, 4 h) was 9.07 ± 1.42 % ID/g. The “% ID/g (24 h) Blood” value ([3]; Blood, 24 h) was 0.07 ± 0.02 % ID/g, the “% ID/g (72 h) Blood” value ([3]; Blood, 72 h) was 0.09 ± 0.07 % ID/g and the “% ID/g (120 h) Blood” value ([3]; Blood, 120 h) was 0.01 ± 0 % ID/g. The “% ID/g (1 h) Femur” value ([3]; Femur, 1 h) was 1.84 ± 1.19 % ID/g, the “% ID/g (4 h) Femur” value ([3]; Femur, 4 h) was 0.99 ± 0.18 % ID/g and the “% ID/g (24 h) Femur” value ([3]; Femur, 24 h) was 0.29 ± 0.1 % ID/g. For the same molecule, the “% ID/g (72 h) Femur” value ([3]; Femur, 72 h) was 0.73 ± 0.82 % ID/g, the “% ID/g (120 h) Femur” value ([3]; Femur, 120 h) was 0.13 ± 0.05 % ID/g and the “% ID/g (1 h) Heart” value ([3]; Heart, 1 h) was 5.76 ± 1.66 % ID/g. The “% ID/g (4 h) Heart” value ([3]; Heart, 4 h) was 3.15 ± 0.43 % ID/g, the “% ID/g (24 h) Heart” value ([3]; Heart, 24 h) was 0.31 ± 0.07 % ID/g and the “% ID/g (72 h) Heart” value ([3]; Heart, 72 h) was 0.89 ± 0.56 % ID/g. The “% ID/g (120 h) Heart” value ([3]; Heart, 120 h) was 0.13 ± 0.02 % ID/g, the “% ID/g (1 h) Intestine” value ([3]; Intestine, 1 h) was 2.59 ± 0.76 % ID/g and the “% ID/g (4 h) Intestine” value ([3]; Intestine, 4 h) was 1.7 ± 0.53 % ID/g. For the same molecule, the “% ID/g (24 h) Intestine” value ([3]; Intestine, 24 h) was 0.7 ± 0.39 % ID/g, the “% ID/g (72 h) Intestine” value ([3]; Intestine, 72 h) was 1.33 ± 0.88 % ID/g and the “% ID/g (120 h) Intestine” value ([3]; Intestine, 120 h) was 0.17 ± 0.06 % ID/g. For the same molecule, the “% ID/g (1 h) Kidney” value ([3]; Kidney, 1 h) was 4.34 ± 2.82 % ID/g, the “% ID/g (4 h) Kidney” value ([3]; Kidney, 4 h) was 3.22 ± 1.54 % ID/g and the “% ID/g (24 h) Kidney” value ([3]; Kidney, 24 h) was 2.61 ± 0.72 % ID/g. The “% ID/g (72 h) Kidney” value ([3]; Kidney, 72 h) was 3.55 ± 2.21 % ID/g, the “% ID/g (120 h) Kidney” value ([3]; Kidney, 120 h) was 0.81 ± 0.23 % ID/g and the “% ID/g (1 h) Liver” value ([3]; Liver, 1 h) was 5.26 ± 1.02 % ID/g. For the same molecule, the “% ID/g (4 h) Liver” value ([3]; Liver, 4 h) was 4.41 ± 1.88 % ID/g, the “% ID/g (24 h) Liver” value ([3]; Liver, 24 h) was 2.21 ± 0.36 % ID/g and the “% ID/g (72 h) Liver” value ([3]; Liver, 72 h) was 4.44 ± 3.4 % ID/g. For the same molecule, the “% ID/g (120 h) Liver” value ([3]; Liver, 120 h) was 0.55 ± 0.3 % ID/g, the “% ID/g (1 h) Lung” value ([3]; Lung, 1 h) was 9.85 ± 2.58 % ID/g and the “% ID/g (4 h) Lung” value ([3]; Lung, 4 h) was 3.88 ± 1.04 % ID/g. For the same molecule, the “% ID/g (24 h) Lung” value ([3]; Lung, 24 h) was 0.62 ± 0.32 % ID/g, the “% ID/g (72 h) Lung” value ([3]; Lung, 72 h) was 0.5 ± 0.19 % ID/g and the “% ID/g (120 h) Lung” value ([3]; Lung, 120 h) was 0.12 ± 0.1 % ID/g. The “% ID/g (1 h) Muscle” value ([3]; Muscle, 1 h) was 1.07 ± 0.14 % ID/g, the “% ID/g (4 h) Muscle” value ([3]; Muscle, 4 h) was 0.66 ± 0.21 % ID/g and the “% ID/g (24 h) Muscle” value ([3]; Muscle, 24 h) was 0.12 ± 0.04 % ID/g. The “% ID/g (72 h) Muscle” value ([3]; Muscle, 72 h) was 0.37 ± 0.34 % ID/g, the “% ID/g (120 h) Muscle” value ([3]; Muscle, 120 h) was 0.06 ± 0.02 % ID/g and the “% ID/g (1 h) Pancreas” value ([3]; Pancreas, 1 h) was 1.18 ± 0.61 % ID/g. The “% ID/g (4 h) Pancreas” value ([3]; Pancreas, 4 h) was 1.01 ± 0.71 % ID/g, the “% ID/g (24 h) Pancreas” value ([3]; Pancreas, 24 h) was 0.15 ± 0.06 % ID/g and the “% ID/g (72 h) Pancreas” value ([3]; Pancreas, 72 h) was 0.51 ± 0.5 % ID/g. The “% ID/g (120 h) Pancreas” value ([3]; Pancreas, 120 h) was 0.05 ± 0.02 % ID/g, the “% ID/g (1 h) Spleen” value ([3]; Spleen, 1 h) was 1.76 ± 0.41 % ID/g and the “% ID/g (4 h) Spleen” value ([3]; Spleen, 4 h) was 1.22 ± 0.16 % ID/g. The “% ID/g (24 h) Spleen” value ([3]; Spleen, 24 h) was 0.43 ± 0.09 % ID/g, the “% ID/g (72 h) Spleen” value ([3]; Spleen, 72 h) was 1.61 ± 1.35 % ID/g and the “% ID/g (120 h) Spleen” value ([3]; Spleen, 120 h) was 0.8 ± 0.32 % ID/g. For the same molecule, the “% ID/g (1 h) Stomach” value ([3]; Stomach, 1 h) was 1.29 ± 0.31 % ID/g, the “% ID/g (4 h) Stomach” value ([3]; Stomach, 4 h) was 1.35 ± 0.68 % ID/g and the “% ID/g (24 h) Stomach” value ([3]; Stomach, 24 h) was 0.29 ± 0.11 % ID/g. The “% ID/g (72 h) Stomach” value ([3]; Stomach, 72 h) was 0.54 ± 0.53 % ID/g, the “% ID/g (120 h) Stomach” value ([3]; Stomach, 120 h) was 0.07 ± 0.01 % ID/g and the “% ID/g (1 h) Tumor” value ([3]; Tumor, 1 h) was 9.74 ± 2.44 % ID/g. For the same molecule, the “% ID/g (4 h) Tumor” value ([3]; Tumor, 4 h) was 20.7 ± 2.21 % ID/g, the “% ID/g (24 h) Tumor” value ([3]; Tumor, 24 h) was 17.4 ± 4.53 % ID/g and the “% ID/g (72 h) Tumor” value ([3]; Tumor, 72 h) was 10.02 ± 6.15 % ID/g. For the same molecule, the “% ID/g (120 h) Tumor” value ([3]; Tumor, 120 h) was 6.61 ± 1.12 % ID/g.

From patent US20240287046A1, “COMPOUNDS AND RADIOLIGANDS FOR TARGETING NEUROTENSIN RECEPTOR AND USES THEREOF” (Full-Life Technologies HK Limited, priority 2022, published 2024)
